Measurements as given in paper PMC11637875, “Discovery of novel PARP1/NRP1 dual-targeting inhibitors with strong antitumor potency” (Frontiers in Pharmacology, 2024).

Legend:
JAK1 = JAK1 (Homo sapiens, UniProt P23458); experiment: Selectivity profile (123 kinase panel); type: biochemical
MARK2 = MARK2 (Homo sapiens, UniProt Q7KZI7); experiment: Selectivity profile (123 kinase panel); type: biochemical
ALK4 = ALK4 (Homo sapiens, UniProt P36896); experiment: Selectivity profile (123 kinase panel); type: biochemical
ALK4, sequence (P36896 24-505): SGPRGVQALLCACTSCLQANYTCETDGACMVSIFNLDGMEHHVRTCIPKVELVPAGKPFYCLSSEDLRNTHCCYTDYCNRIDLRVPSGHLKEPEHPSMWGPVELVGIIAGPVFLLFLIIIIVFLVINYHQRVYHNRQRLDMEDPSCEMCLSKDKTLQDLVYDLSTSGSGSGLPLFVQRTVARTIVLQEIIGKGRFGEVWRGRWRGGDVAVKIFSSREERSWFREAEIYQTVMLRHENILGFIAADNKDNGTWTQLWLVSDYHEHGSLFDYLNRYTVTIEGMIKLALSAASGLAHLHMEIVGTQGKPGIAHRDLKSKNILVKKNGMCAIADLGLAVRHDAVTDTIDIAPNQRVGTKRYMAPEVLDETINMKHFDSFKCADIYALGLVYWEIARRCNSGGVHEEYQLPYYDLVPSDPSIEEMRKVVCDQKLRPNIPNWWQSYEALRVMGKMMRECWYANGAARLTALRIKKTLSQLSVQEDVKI

CaMK1α = CaMK1α (Homo sapiens, UniProt Q14012); experiment: Selectivity profile (123 kinase panel); type: biochemical
PARP13 = PARP13 (Homo sapiens, UniProt Q7Z2W4); experiment: Selectivity profile (other isoforms of PARP and NRP family); type: biochemical
MUSK = MUSK (Homo sapiens, UniProt O15146); experiment: Selectivity profile (123 kinase panel); type: biochemical
MUSK, sequence (O15146 24-869): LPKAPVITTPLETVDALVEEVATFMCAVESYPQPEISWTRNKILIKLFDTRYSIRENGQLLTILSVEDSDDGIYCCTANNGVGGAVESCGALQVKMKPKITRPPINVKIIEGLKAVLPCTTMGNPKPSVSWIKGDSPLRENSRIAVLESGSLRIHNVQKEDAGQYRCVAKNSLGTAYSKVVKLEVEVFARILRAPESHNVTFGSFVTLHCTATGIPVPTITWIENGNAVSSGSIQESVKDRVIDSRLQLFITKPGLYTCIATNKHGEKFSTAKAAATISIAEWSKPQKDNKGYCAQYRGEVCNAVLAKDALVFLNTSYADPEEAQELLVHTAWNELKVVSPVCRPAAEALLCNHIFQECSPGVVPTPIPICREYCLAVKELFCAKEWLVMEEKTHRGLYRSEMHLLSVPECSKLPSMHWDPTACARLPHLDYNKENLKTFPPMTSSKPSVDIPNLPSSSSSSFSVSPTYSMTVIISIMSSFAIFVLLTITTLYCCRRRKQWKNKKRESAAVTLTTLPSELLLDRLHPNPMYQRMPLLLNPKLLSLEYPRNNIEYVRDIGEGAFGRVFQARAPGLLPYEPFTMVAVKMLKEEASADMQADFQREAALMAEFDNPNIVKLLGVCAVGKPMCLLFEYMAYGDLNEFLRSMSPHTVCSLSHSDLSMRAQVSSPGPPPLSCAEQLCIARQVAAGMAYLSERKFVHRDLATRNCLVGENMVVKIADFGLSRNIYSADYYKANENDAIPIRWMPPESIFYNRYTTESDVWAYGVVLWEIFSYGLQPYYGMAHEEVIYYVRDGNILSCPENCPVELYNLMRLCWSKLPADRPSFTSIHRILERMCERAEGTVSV

JNK2 = JNK2 (Homo sapiens, UniProt P45984); experiment: Selectivity profile (123 kinase panel); type: biochemical
EGFR = EGFR (Homo sapiens, UniProt P00533); experiment: Selectivity profile (123 kinase panel); type: biochemical
DCAMKL1 = DCAMKL1 (Homo sapiens, UniProt O15075); experiment: Selectivity profile (123 kinase panel); type: biochemical
KHS = KHS (Homo sapiens, UniProt Q9Y4K4); experiment: Selectivity profile (123 kinase panel); type: biochemical
FGFR4 = FGFR4 (Homo sapiens, UniProt P22455); experiment: Selectivity profile (123 kinase panel); type: biochemical
BMX = BMX (Homo sapiens, UniProt P51813); experiment: Selectivity profile (123 kinase panel); type: biochemical
DCAMKL2 = DCAMKL2 (Homo sapiens, UniProt Q8N568); experiment: Selectivity profile (123 kinase panel); type: biochemical
AurB = AurB (Homo sapiens, UniProt Q96GD4); experiment: Selectivity profile (123 kinase panel); type: biochemical
NRP1 = molecular target: T1, NRP1 (Homo sapiens, UniProt O14786); experiment: In vitro NRP1 inhibition assay (125I-VEGF-A binding displacement, NRP1-transfected HUVEC cells); settings: 125I-VEGF-A165 binding competition, 2 h, 4°C
T1 construct: expressed in transfected cells; host or cells: HUVEC, adenovirus NRP1
Protocol: The method was performed as described previously ([Jarvis et al., 2010]). Radiolabeled binding displacement experiments were performed as described previously ([Jia et al., 2006]). Confluent adenovirus NRP1-transfected HUVEC cells in 96-well plates were washed twice with PBS. At 4°C various concentrations of compounds diluted in binding medium (Dulbecco’s modified Eagle’s medium, 25 mM HEPES, pH 7.3, containing 0.1% BSA) were added, followed by addition of the indicated concentration of ^125I-VEGF-A (1,200–1800 Ci/mmol, GE Healthcare, United Kingdom). After 2 h of incubation at 4°C, the medium was aspirated, and washed four times with cold phosphate-buffered saline. The cells were lysed with 0.25 M NaOH, 0.5% SDS solution, and the bound radioactivity of the lysates was measured. IC50 values were calculated from the competition curves of the compounds in the ^125I-VEGF-A165 binding assay using GraphPad Prism 9 software. Using log(inhibitors) vs response-Variable slope equation in the GraphPad Prism 9 to fit the curves. The equation was as follows: (Top and Bottom are the responses, respectively, at the top and bottom of the curve, Y is the inhibitory response at a given compound concentration X, and the Hillslope describes the steepness of the curve.) Y=Bottom+Top−Bottom/1+10^logIC50−xHillslope

LYNa = LYNa (Homo sapiens, UniProt P07948); experiment: Selectivity profile (123 kinase panel); type: biochemical
NEK1 = NEK1 (Homo sapiens, UniProt Q96PY6); experiment: Selectivity profile (123 kinase panel); type: biochemical
EPHA1 = EPHA1 (Homo sapiens, UniProt P21709); experiment: Selectivity profile (123 kinase panel); type: biochemical
PARP15 = PARP15 (Homo sapiens, UniProt Q460N3); experiment: Selectivity profile (other isoforms of PARP and NRP family); type: biochemical
NEK2 = NEK2 (Homo sapiens, UniProt P51955); experiment: Selectivity profile (123 kinase panel); type: biochemical
CK1δ = CK1δ (Homo sapiens, UniProt P48730); experiment: Selectivity profile (123 kinase panel); type: biochemical
CK1δ, sequence (P48730 whole entry): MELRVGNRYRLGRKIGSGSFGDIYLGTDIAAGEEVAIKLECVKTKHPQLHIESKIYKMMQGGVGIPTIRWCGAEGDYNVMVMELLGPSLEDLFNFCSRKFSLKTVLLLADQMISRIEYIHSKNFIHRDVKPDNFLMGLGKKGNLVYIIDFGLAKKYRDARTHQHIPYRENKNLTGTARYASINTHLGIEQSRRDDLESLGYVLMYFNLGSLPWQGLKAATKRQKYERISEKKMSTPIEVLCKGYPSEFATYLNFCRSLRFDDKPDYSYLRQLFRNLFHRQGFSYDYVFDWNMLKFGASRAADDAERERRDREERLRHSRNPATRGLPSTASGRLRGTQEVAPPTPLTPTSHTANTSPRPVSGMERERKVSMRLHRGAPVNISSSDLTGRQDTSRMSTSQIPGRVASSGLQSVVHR

HIPK2 = HIPK2 (Homo sapiens, UniProt Q9H2X6); experiment: Selectivity profile (123 kinase panel); type: biochemical
MST2 = MST2 (Homo sapiens, UniProt Q13188); experiment: Selectivity profile (123 kinase panel); type: biochemical
DDR2 = DDR2 (Homo sapiens, UniProt Q16832); experiment: Selectivity profile (123 kinase panel); type: biochemical
FRK = FRK (Homo sapiens, UniProt P42685); experiment: Selectivity profile (123 kinase panel); type: biochemical
FRK, sequence (P42685 whole entry): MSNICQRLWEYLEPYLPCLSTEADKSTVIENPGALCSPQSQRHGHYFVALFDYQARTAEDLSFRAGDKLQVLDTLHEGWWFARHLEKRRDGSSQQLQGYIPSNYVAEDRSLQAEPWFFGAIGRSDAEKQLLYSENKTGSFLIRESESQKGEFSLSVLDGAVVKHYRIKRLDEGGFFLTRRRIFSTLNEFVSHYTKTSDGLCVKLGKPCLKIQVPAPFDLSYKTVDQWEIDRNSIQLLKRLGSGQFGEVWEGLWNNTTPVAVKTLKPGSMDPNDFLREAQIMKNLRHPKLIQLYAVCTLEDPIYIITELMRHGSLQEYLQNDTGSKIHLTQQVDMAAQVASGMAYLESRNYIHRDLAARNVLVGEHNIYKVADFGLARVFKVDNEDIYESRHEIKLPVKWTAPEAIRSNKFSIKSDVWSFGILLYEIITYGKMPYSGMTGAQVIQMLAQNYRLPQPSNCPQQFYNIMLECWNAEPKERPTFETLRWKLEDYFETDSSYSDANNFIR

NuaK2 = NuaK2 (Homo sapiens, UniProt Q9H093); experiment: Selectivity profile (123 kinase panel); type: biochemical
NuaK2, sequence (Q9H093 whole entry): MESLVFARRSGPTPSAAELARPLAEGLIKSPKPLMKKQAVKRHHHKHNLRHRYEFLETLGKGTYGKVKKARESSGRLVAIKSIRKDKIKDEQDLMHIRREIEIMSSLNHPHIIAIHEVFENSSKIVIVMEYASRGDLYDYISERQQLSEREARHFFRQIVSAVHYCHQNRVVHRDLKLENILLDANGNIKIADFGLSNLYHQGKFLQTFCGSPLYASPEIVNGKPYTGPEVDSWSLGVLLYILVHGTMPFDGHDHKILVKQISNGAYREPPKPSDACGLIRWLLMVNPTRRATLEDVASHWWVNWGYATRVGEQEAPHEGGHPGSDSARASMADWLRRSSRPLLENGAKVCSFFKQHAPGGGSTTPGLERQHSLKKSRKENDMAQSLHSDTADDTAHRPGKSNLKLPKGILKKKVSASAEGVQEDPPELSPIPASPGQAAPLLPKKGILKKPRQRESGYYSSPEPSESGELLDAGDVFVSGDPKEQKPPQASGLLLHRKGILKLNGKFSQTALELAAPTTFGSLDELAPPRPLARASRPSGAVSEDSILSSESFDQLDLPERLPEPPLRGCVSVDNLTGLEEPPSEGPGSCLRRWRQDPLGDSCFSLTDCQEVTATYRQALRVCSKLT

DDR1 = DDR1 (Homo sapiens, UniProt Q08345); experiment: Selectivity profile (123 kinase panel); type: biochemical
FES = FES (Homo sapiens, UniProt P07332); experiment: Selectivity profile (123 kinase panel); type: biochemical
EPHA7 = EPHA7 (Homo sapiens, UniProt Q15375); experiment: Selectivity profile (123 kinase panel); type: biochemical
AKT1 = AKT1 (Homo sapiens, UniProt P31749); experiment: Selectivity profile (123 kinase panel); type: biochemical
MST3 = MST3 (Homo sapiens, UniProt Q9Y6E0); experiment: Selectivity profile (123 kinase panel); type: biochemical
FGFR3 = FGFR3 (Homo sapiens, UniProt P22607); experiment: Selectivity profile (123 kinase panel); type: biochemical
FER = FER (Homo sapiens, UniProt P16591); experiment: Selectivity profile (123 kinase panel); type: biochemical
AMPKα2/β1/γ1 = AMPKα2/β1/γ1 (Homo sapiens, UniProt P54619+P54646+Q9Y478); experiment: Selectivity profile (123 kinase panel); type: biochemical
AMPKα2/β1/γ1, sequence (P54646 whole entry): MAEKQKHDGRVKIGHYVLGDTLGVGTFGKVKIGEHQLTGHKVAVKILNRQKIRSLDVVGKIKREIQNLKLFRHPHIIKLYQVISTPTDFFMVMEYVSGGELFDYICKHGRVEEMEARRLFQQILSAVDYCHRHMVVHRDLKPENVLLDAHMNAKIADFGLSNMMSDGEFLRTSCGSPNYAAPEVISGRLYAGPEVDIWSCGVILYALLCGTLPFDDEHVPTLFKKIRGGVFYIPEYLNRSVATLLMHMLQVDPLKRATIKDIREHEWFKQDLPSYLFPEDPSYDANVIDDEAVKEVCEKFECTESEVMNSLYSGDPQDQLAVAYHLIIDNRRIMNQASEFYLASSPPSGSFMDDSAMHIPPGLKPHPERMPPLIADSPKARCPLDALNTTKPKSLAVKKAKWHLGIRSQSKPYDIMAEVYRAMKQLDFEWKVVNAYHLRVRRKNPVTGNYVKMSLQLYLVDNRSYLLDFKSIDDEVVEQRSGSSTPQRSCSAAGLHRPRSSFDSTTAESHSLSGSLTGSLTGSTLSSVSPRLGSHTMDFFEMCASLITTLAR
AMPKα2/β1/γ1, sequence (Q9Y478 whole entry partner): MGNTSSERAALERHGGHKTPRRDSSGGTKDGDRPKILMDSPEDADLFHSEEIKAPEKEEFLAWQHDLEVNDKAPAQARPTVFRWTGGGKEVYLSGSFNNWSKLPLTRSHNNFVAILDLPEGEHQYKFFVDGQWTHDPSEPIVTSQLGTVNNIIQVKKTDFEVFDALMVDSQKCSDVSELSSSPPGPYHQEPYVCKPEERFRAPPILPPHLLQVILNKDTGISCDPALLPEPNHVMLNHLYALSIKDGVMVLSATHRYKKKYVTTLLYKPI
AMPKα2/β1/γ1, sequence (P54619 whole entry partner): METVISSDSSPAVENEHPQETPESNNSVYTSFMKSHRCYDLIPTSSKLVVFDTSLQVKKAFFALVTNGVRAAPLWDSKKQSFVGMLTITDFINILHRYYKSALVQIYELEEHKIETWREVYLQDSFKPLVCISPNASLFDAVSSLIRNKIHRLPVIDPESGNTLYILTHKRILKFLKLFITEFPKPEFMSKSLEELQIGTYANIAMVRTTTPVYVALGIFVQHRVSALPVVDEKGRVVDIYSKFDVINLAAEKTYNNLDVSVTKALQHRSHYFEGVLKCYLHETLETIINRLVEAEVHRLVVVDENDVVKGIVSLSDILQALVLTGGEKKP

HIPK4 = HIPK4 (Homo sapiens, UniProt Q8NE63); experiment: Selectivity profile (123 kinase panel); type: biochemical
Erk5 = Erk5 (Homo sapiens, UniProt Q13164); experiment: Selectivity profile (123 kinase panel); type: biochemical
Erk5, sequence (Q13164 whole entry, species assumed): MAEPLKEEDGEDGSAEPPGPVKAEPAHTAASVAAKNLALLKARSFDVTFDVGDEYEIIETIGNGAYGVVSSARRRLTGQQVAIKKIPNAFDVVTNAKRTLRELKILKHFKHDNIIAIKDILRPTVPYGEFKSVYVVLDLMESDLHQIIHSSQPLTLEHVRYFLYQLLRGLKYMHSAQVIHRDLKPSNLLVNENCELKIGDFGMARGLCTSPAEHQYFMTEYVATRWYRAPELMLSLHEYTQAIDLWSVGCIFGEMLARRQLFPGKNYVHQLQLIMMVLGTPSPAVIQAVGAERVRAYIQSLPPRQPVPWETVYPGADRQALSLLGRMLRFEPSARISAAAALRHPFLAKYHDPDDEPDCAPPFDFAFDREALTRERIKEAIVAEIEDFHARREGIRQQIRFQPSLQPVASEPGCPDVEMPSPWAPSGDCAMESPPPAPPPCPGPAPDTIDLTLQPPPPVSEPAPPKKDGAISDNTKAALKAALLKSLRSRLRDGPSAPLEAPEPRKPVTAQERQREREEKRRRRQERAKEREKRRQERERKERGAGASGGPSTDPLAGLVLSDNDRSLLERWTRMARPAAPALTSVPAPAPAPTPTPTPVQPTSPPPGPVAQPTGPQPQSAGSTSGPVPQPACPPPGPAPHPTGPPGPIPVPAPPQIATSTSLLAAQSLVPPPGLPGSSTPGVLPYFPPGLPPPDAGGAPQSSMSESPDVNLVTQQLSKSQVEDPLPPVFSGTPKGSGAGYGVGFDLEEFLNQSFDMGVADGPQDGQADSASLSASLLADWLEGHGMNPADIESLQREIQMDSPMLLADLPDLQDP

NC(N)=NCCC[C@H](NCN1CCN(C(=O)c2cc(Cc3n[nH]c(=O)c4ccccc34)ccc2F)CC1)C(=O)O [PPNR-4]
IC50 (JAK1): > 10 µM | IC50 (MARK2): > 10 µM | IC50 (ALK4): > 10 µM | IC50 (CaMK1α): > 10 µM | IC50 (PARP13): > 10 µM | IC50 (MUSK): > 10 µM | IC50 (JNK2): > 10 µM | IC50 (EGFR): > 10 µM | IC50 (DCAMKL1): > 10 µM | IC50 (KHS): > 10 µM | IC50 (FGFR4): > 10 µM | IC50 (BMX): > 10 µM | IC50 (DCAMKL2): > 10 µM | IC50 (AurB): > 10 µM | IC50 (NRP1): 0.0245 ± 0.00216 µM | IC50 (LYNa): > 10 µM | IC50 (NEK1): > 10 µM | IC50 (EPHA1): > 10 µM | IC50 (PARP15): > 10 µM | IC50 (NEK2): > 10 µM | IC50 (CK1δ): > 10 µM | IC50 (HIPK2): > 10 µM | IC50 (MST2): > 10 µM | IC50 (DDR2): > 10 µM | IC50 (FRK): > 10 µM | IC50 (NuaK2): > 10 µM | IC50 (DDR1): > 10 µM | IC50 (FES): > 10 µM | IC50 (EPHA7): > 10 µM | IC50 (AKT1): > 10 µM | IC50 (MST3): > 10 µM | IC50 (FGFR3): > 10 µM | IC50 (FER): > 10 µM | IC50 (AMPKα2/β1/γ1): > 10 µM | IC50 (HIPK4): > 10 µM | IC50 (Erk5): > 10 µM
